Reference: patent publication US20250151727A1, “(S)-ABSCISIC ACID FOR REDUCING FRUIT DROP” (Valent BioSciences LLC, priority 2023, published 2025)

Key:
Format in all cases: in vivo
[1] = test system: 'Midknight Valencia' sweet orange trees; experiment: Fruit drop after foliar spray, 'Midknight Valencia' sweet orange, Porterville (Example 1); conditions: for # Fruit per Tree / % Change in # Fruit per Tree: ProTone SG, 28 days after 100% petal drop; for % Change in # Fruit per Tree: vs untreated control
Method: ProTone™ SG was applied to mature ‘Midknight Valencia’ sweet orange trees in a commercial orchard near Porterville (33°08′37.54″S, 18°59′35.90″E) in the Western Cape Province of South Africa. The experiment consisted of a completely randomized design and consisted of 10 single-tree replicates. S-ABA was applied as a foliar spray at 75, 150 and 300 parts per million (“ppm”) and compared to an untreated control (only water) at 2 liters per tree. All treatments were applied with a non-ionic wetting agent (Villa 51® having the active ingredient isotridecanol and available from Villa Crop Protection (Pty) Ltd) at a rate of 6 milliliters per 100 liters of water. Treatments were applied 28 days after 100% petal drop on 31 Oct. 2019. See Results in Table 1, below.

'Orri' mandarin trees [2] = experiment: Fruit drop after foliar spray, 'Orri' mandarin, Piketberg, open and shade-netted orchards (Example 2); conditions: 150 ppm; for # Fruit per Tree / % Change in # Fruit per Tree: ProTone SG, 28 days after 100% petal drop
Method: ProTone™ SG was applied to mature ‘Orri’ mandarin trees in a commercial orchard near Piketberg (33°04′46.3″S 18°50′04.7″E) in the Western Cape Province of South Africa. Two trials were conducted, one in an orchard covered with permanent shade netting, and the other in an open orchard. The experiment consisted of 5 trees per plot for each of covered and open orchard. S-ABA was applied as a foliar spray at 150 ppm and compared to an untreated control at 3.4 liters per tree for the covered orchard and 2.8 liters per tree for the open orchard. All treatments were applied with Villa 51® at a rate of 6 milliliters per 100 liters of water. Treatments were applied 28 days after 100% petal drop on 29 Nov. 2021. See Results in Table 2, below.

[3] = test system: 'Nadorcott' mandarin trees; experiment: Fruit drop after foliar spray, 'Nadorcott' mandarin, Piketberg (Example 3); conditions: for # Fruit per Tree / % Change in # Fruit per Tree: 28 days after 100% petal drop; for % Change in # Fruit per Tree: vs untreated control
Method: ProTone™ SG or Excelero™ SL was applied to mature ‘Nadorcott’ mandarin trees in a commercial orchard near Piketberg (33°04′46.3″S 18°50′04.7″E) in the Western Cape Province of South Africa. The experiment consisted of 5 trees per plot. S-ABA in the form of ProTone™ SG was applied as a foliar spray at 18.5, 37 and 75 ppm and at 37 ppm in the form of Excelero™ SL and compared to an untreated control at 2.4 liters per tree. All treatments were applied with Villa 51® at a rate of 6 milliliters per 100 liters of water. Treatments were applied 28 days after 100% petal drop on 8 Nov. 2022. See Results in Table 3, below.

[4] = test system: 'Nadorcott' mandarin trees; experiment: Fruit drop, 'Nadorcott' mandarin, Piketberg, all plots with ProGibb (Example 4); conditions: for # Fruit per Tree / % Change in # Fruit per Tree: Excelero SL; for % Change in # Fruit per Tree: vs untreated control
Method: Excelero™ SL was applied to mature ‘Nadorcott’ mandarin trees in a commercial orchard near Piketberg (33°04′46.3″S 18°50′04.7″E) in the Western Cape Province of South Africa. The experiment consisted of 5 trees per plot. S-ABA was applied at 50 and 100 ppm in the form of Excelero™ SL and compared to an untreated control at 2.4 liters per tree. All plots received application of ProGibb® at 80% and 100% petal fall. All treatments were applied with Villa 51® at a rate of 6 milliliters per 100 liters of water. Treatments were applied 42 and 56 days after 100% petal drop (“DAP”) on 23 November and […], respectively. See Results in Table 4, below.

'Orri' mandarin trees [5] = experiment: Fruit drop, 'Orri' mandarin, Mpumalanga (Example 6); conditions: for # Fruit per Tree / % Change in # Fruit per Tree: Excelero SL; for % Change in # Fruit per Tree: vs untreated control
Source text: Excelero™ SL was applied to mature ‘Orri’ mandarin trees in a commercial orchard near Mpumalanga, South Africa. The experiment consisted of a completely randomized design. S-ABA was applied at 20, 40 and 80 ppm in the form of Excelero™ SL and compared to an untreated control. All treatments were applied with Villa 51® at a rate of 6 milliliters per 100 liters of water. Treatments were applied 14, 21 and 28 days after 100% petal drop (“DAP”). See Results in Table 6, below.

[6] = test system: '2PH seedless' lemon trees; experiment: Fruit drop, '2PH seedless' lemon, Mpumalanga (Example 8); conditions: for # Fruit per Tree / % Change in # Fruit per Tree: Excelero SL; for % Change in # Fruit per Tree: vs untreated control
Source text: Excelero™ SL was applied to mature ‘2PH seedless’ lemon trees in a commercial orchard near Mpumalanga, South Africa. The experiment consisted of a completely randomized design. S-ABA was applied at 20, 40 and 80 ppm in the form of Excelero™ SL and compared to an untreated control. All treatments were applied with Villa 51® at a rate of 6 milliliters per 100 liters of water. Treatments were applied 14, 21 and 28 days after 100% petal drop (“DAP”). See Results in Table 8, below.

[7] = 20, 40 and 80 ppm at each of 14, 21 and 28 days after 100% petal drop

(S)-abscisic acid [S-ABA]
effect on fruit drop as compared to untreated control ([1]; 75 and 150 ppm): reduced fruit drop | # Fruit per Tree ([1]; 75 ppm foliar spray): 413 | % Change in # Fruit per Tree ([1]; 75 ppm foliar spray): 11% | # Fruit per Tree ([1]; 150 ppm foliar spray): 444 | % Change in # Fruit per Tree ([1]; 150 ppm foliar spray): 20% | effect on fruit drop as compared to untreated control ([1]; 300 ppm): increasing fruit drop | # Fruit per Tree ([1]; 300 ppm foliar spray): 351 | % Change in # Fruit per Tree ([1]; 300 ppm foliar spray): −5% | effect on fruit drop as compared to untreated control ('Orri' mandarin trees [2]): increased fruit drop | # Fruit per Tree ('Orri' mandarin trees [2]; no shade (open orchard)): 397 | % Change in # Fruit per Tree ('Orri' mandarin trees [2]; no shade (open orchard), vs untreated control (no shade)): −28% | # Fruit per Tree ('Orri' mandarin trees [2]; shade (permanent shade netting)): 82 | % Change in # Fruit per Tree ('Orri' mandarin trees [2]; shade (permanent shade netting), vs untreated control (shade)): −78% | # Fruit per Tree ([3]; 18.5 ppm, ProTone SG): 793 | % Change in # Fruit per Tree ([3]; 18.5 ppm, ProTone SG): 3% | effect on fruit drop as compared to untreated control ([3]; 37 and 75 ppm): reduced fruit drop | # Fruit per Tree ([3]; 37 ppm, Excelero SL): 1010 | % Change in # Fruit per Tree ([3]; 37 ppm, Excelero SL): 32% | # Fruit per Tree ([3]; 37 ppm, ProTone SG): 841 | % Change in # Fruit per Tree ([3]; 37 ppm, ProTone SG): 10% | # Fruit per Tree ([3]; 75 ppm, ProTone SG): 909 | % Change in # Fruit per Tree ([3]; 75 ppm, ProTone SG): 18% | effect on fruit drop as compared to untreated control ([4]; 50 and 100 ppm at both 42 and 56 days after 100% petal drop): reduced fruit drop | # Fruit per Tree ([4]; 50 ppm @ 42 DAP): 412 | % Change in # Fruit per Tree ([4]; 50 ppm @ 42 DAP): 35% | # Fruit per Tree ([4]; 50 ppm @ 56 DAP): 316 | % Change in # Fruit per Tree ([4]; 50 ppm @ 56 DAP): 3% | # Fruit per Tree ([4]; 100 ppm @ 42 DAP): 387 | % Change in # Fruit per Tree ([4]; 100 ppm @ 42 DAP): 26% | # Fruit per Tree ([4]; 100 ppm @ 56 DAP): 322 | % Change in # Fruit per Tree ([4]; 100 ppm @ 56 DAP): 5% | effect on fruit drop as compared to untreated control ('Orri' mandarin trees [5]; [7]): reduced fruit drop | # Fruit per Tree ('Orri' mandarin trees [5]; 20 ppm @ 14 DAP): 222 | % Change in # Fruit per Tree ('Orri' mandarin trees [5]; 20 ppm @ 14 DAP): 17% | # Fruit per Tree ('Orri' mandarin trees [5]; 20 ppm @ 21 DAP): 257 | % Change in # Fruit per Tree ('Orri' mandarin trees [5]; 20 ppm @ 21 DAP): 36% | # Fruit per Tree ('Orri' mandarin trees [5]; 20 ppm @ 28 DAP): 196 | % Change in # Fruit per Tree ('Orri' mandarin trees [5]; 20 ppm @ 28 DAP): 4% | # Fruit per Tree ('Orri' mandarin trees [5]; 40 ppm @ 14 DAP): 222 | % Change in # Fruit per Tree ('Orri' mandarin trees [5]; 40 ppm @ 14 DAP): 17% | # Fruit per Tree ('Orri' mandarin trees [5]; 40 ppm @ 21 DAP): 234 | % Change in # Fruit per Tree ('Orri' mandarin trees [5]; 40 ppm @ 21 DAP): 24% | # Fruit per Tree ('Orri' mandarin trees [5]; 40 ppm @ 28 DAP): 250 | % Change in # Fruit per Tree ('Orri' mandarin trees [5]; 40 ppm @ 28 DAP): 32% | # Fruit per Tree ('Orri' mandarin trees [5]; 80 ppm @ 14 DAP): 255 | % Change in # Fruit per Tree ('Orri' mandarin trees [5]; 80 ppm @ 14 DAP): 35% | # Fruit per Tree ('Orri' mandarin trees [5]; 80 ppm @ 21 DAP): 213 | % Change in # Fruit per Tree ('Orri' mandarin trees [5]; 80 ppm @ 21 DAP): 13% | # Fruit per Tree ('Orri' mandarin trees [5]; 80 ppm @ 28 DAP): 207 | % Change in # Fruit per Tree ('Orri' mandarin trees [5]; 80 ppm @ 28 DAP): 10% | effect on fruit drop as compared to untreated control [6, 7]: reduced fruit drop | # Fruit per Tree ([6]; 20 ppm @ 14 DAP): 107 | % Change in # Fruit per Tree ([6]; 20 ppm @ 14 DAP): 23% | # Fruit per Tree ([6]; 20 ppm @ 21 DAP): 105 | % Change in # Fruit per Tree ([6]; 20 ppm @ 21 DAP): 21% | # Fruit per Tree ([6]; 20 ppm @ 28 DAP): 112 | % Change in # Fruit per Tree ([6]; 20 ppm @ 28 DAP): 29% | # Fruit per Tree ([6]; 40 ppm @ 14 DAP): 114 | % Change in # Fruit per Tree ([6]; 40 ppm @ 14 DAP): 31% | # Fruit per Tree ([6]; 40 ppm @ 21 DAP): 121 | % Change in # Fruit per Tree ([6]; 40 ppm @ 21 DAP): 39% | # Fruit per Tree ([6]; 40 ppm @ 28 DAP): 119 | % Change in # Fruit per Tree ([6]; 40 ppm @ 28 DAP): 37% | # Fruit per Tree ([6]; 80 ppm @ 14 DAP): 109 | % Change in # Fruit per Tree ([6]; 80 ppm @ 14 DAP): 25% | # Fruit per Tree ([6]; 80 ppm @ 21 DAP): 117 | % Change in # Fruit per Tree ([6]; 80 ppm @ 21 DAP): 34% | # Fruit per Tree ([6]; 80 ppm @ 28 DAP): 125 | % Change in # Fruit per Tree ([6]; 80 ppm @ 28 DAP): 44%
